Measurements published in ChEMBL document CHEMBL3397017, “Discovery of a new series of potent prostacyclin receptor agonists with in vivo activity in rat” (Bioorg Med Chem Lett, 2015).
Activity calls are given as the source filed them. The rule behind the calls is not given here.

Experiments:
Prostacyclin receptor [1] = target: T1, Prostacyclin receptor (Homo sapiens, UniProt P43119); experiment: Agonist activity at human recombinant IP receptor expressed in CHO-K1 cells incubated for 1 hr by HTRF cAMP assay; assay type: functional, cell-based
T1 sequence (P43119 whole entry): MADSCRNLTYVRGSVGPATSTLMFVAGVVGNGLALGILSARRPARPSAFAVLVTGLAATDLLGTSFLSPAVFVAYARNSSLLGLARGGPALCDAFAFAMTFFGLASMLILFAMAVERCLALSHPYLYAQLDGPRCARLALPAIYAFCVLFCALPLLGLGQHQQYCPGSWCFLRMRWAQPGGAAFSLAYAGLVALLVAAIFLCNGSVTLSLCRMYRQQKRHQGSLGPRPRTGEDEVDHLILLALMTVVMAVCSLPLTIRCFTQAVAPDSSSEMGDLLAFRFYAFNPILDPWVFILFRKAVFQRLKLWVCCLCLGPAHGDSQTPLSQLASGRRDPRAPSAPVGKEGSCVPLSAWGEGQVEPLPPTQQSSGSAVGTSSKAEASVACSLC

Prostacyclin receptor [2] = target: T1, Prostacyclin receptor; experiment: Intrinsic activity at human recombinant IP receptor expressed in CHO-K1 cells incubated for 1 hr by HTRF cAMP assay relative to 1 uM iloprost; assay type: functional, cell-based
Prostacyclin receptor [3] = target: Prostacyclin receptor (Rattus norvegicus, UniProt P43253); experiment: Agonist activity at rat recombinant IP receptor expressed in CHO-K1 cells incubated for 1 hr by HTRF cAMP assay; assay type: functional, cell-based
Prostacyclin receptor (Rattus norvegicus, UniProt P43253), sequence (P43253 whole entry): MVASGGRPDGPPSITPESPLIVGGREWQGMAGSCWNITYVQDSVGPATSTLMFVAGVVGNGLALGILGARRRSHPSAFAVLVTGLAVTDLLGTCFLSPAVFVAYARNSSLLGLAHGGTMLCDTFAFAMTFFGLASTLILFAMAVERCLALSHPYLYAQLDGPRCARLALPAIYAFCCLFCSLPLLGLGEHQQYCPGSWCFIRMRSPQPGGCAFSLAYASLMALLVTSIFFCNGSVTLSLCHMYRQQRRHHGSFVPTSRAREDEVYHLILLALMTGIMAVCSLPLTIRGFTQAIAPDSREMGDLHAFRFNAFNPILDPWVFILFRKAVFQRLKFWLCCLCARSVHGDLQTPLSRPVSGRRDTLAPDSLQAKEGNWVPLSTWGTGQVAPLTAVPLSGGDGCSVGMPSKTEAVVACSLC

[4] = target: Prostacyclin receptor (Rattus norvegicus) (UniProt P43253); experiment: Intrinsic activity at rat recombinant IP receptor expressed in CHO-K1 cells incubated for 1 hr by HTRF cAMP assay relative to 1 uM iloprost; assay type: functional, cell-based
Prostacyclin receptor (Rattus norvegicus), sequence (P43253 whole entry): as above

[5] = target: T2, Prostaglandin D2 receptor (Homo sapiens, UniProt Q13258); experiment: Agonist activity at human recombinant DP1 receptor expressed in melanophores assessed as induction of pigment redistribution incubated for 90 mins
T2 sequence (Q13258 whole entry): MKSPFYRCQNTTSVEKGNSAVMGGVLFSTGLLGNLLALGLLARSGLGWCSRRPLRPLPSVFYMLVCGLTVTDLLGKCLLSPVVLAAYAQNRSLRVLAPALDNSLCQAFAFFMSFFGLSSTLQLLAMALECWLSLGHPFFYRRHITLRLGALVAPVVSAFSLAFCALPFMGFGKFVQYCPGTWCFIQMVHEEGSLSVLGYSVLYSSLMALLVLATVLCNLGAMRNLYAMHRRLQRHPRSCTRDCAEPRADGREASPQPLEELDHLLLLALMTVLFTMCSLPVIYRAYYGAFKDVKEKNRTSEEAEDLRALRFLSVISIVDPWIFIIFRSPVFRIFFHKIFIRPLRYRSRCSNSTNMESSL

Liver microsome [6] = experiment: Stability in rat liver microsomes; assay type: ADME
Liver microsome [7] = experiment: Stability in human liver microsomes; assay type: ADME
[8] = Half life in sc dosed rat; assay type: ADME, organism-based; conditions: in vivo
Rattus norvegicus [9] = experiment: Prevention of right ventricular weight increase in rat model of monocrotaline-induced pulmonary arterial hypertension administered subcutaneously twice daily for 21 days; assay type: functional, organism-based; conditions: Heart right ventricle
Rattus norvegicus [10] = experiment: Prevention of right ventricular weight increase in rat model of monocrotaline-induced pulmonary arterial hypertension at 30 mg/kg, sc administered twice daily for 21 days relative to sham animal (reference value: 19 no unit); assay type: functional, Heart right ventricle
Rattus norvegicus [11] = experiment: Prevention of right ventricular weight increase in rat model of monocrotaline-induced pulmonary arterial hypertension at 10 mg/kg, sc administered twice daily for 21 days relative to sham animal (reference value: 19 no unit); assay type: functional, Heart right ventricle
Rattus norvegicus [12] = experiment: Prevention of right ventricular weight increase in rat model of monocrotaline-induced pulmonary arterial hypertension at 1 mg/kg, sc administered twice daily for 21 days relative to sham animal (reference value: 19 no unit); assay type: functional, Heart right ventricle; conditions: route subcutaneous
Rattus norvegicus [13] = experiment: Improvement in right ventricular systolic pressure in rat model of monocrotaline-induced pulmonary arterial hypertension at 10 mg/kg, sc administered twice daily for 21 days; assay type: functional, organism-based; design: dose 10 mg/kg; conditions: Heart right ventricle
Homo sapiens = organism: Homo sapiens; experiment: Selectivity index, ratio of EC50 for human recombinant DP1 receptor to EC50 for human recombinant IP receptor
[14] = target: T2, Prostaglandin D2 receptor; experiment: Agonist activity at human recombinant DP1 receptor by melanophore assay
[15] = Oral bioavailability in rat; assay type: ADME, organism-based; conditions: in vivo
[16] = Half life in iv dosed rat; assay type: ADME, organism-based; conditions: in vivo

EC50 (Prostacyclin receptor [1]) [nM]	Intrinsic activity (Prostacyclin receptor [2]) [%]	EC50 (Prostacyclin receptor [3]) [nM]	Intrinsic activity [4] [%]	EC50 [5] [nM]	Stability (Liver microsome [6])	Stability (Liver microsome [7])	SMILES	further results
969	60	2190	70	21			O=C(O)COc1cccc2c1CCC(Cn1nc(-c3ccccc3)c(-c3ccccc3)cc1=O)C2 (racemic)	
2670	47	> 10000			Unstable	Unstable	COc1ccc(-c2cc(=O)n(CC3CCc4c(cccc4OCC(=O)O)C3)nc2-c2ccccc2)cc1 (racemic)	
60	88	310	96	17	Unstable	Unstable	COc1cccc(-c2cc(=O)n(CC3CCc4c(cccc4OCC(=O)O)C3)nc2-c2ccccc2)c1 (racemic)	
180	97	370	72	25			Cc1cccc(-c2cc(=O)n(CC3CCc4c(cccc4OCC(=O)O)C3)nc2-c2ccccc2)c1 (racemic)	
380	63	900	97	44			O=C(O)COc1cccc2c1CCC(Cn1nc(-c3ccccc3)c(-c3cccc(F)c3)cc1=O)C2 (racemic)	
60	77	360	62	61			O=C(O)COc1cccc2c1CCC(Cn1nc(-c3ccccc3)c(-c3cccc(Cl)c3)cc1=O)C2 (racemic)	
37	97	350	85	6	Unstable	Unstable	COc1cccc(-c2cc(=O)n(CC3CCc4c(cccc4OCC(=O)O)C3)nc2-c2ccccc2)c1F (racemic)	
1720	87	> 10000			Unstable	Unstable	COc1cccc(-c2nn(CC3CCc4c(cccc4OCC(=O)O)C3)c(=O)cc2-c2ccccc2)c1 (racemic)	
1060	88	2370	99				O=C(O)COc1cccc2c1CCC(Cn1nc(-c3cccc(F)c3)c(-c3ccccc3)cc1=O)C2 (racemic)	
8.5	80	12.5	93	1.7	Unstable	Unstable	COc1ccc(-c2nn(CC3CCc4c(cccc4OCC(=O)O)C3)c(=O)cc2-c2ccccc2)cc1 (racemic)	
24	67	120	99				Cc1ccc(-c2nn(CC3CCc4c(cccc4OCC(=O)O)C3)c(=O)cc2-c2ccccc2)cc1 (racemic)	
114	89	1500	93				O=C(O)COc1cccc2c1CCC(Cn1nc(-c3ccc(F)cc3)c(-c3ccccc3)cc1=O)C2 (racemic)	
20	78	112	76	31	Unstable	Unstable	COc1ccc(-c2nn(CC3CCc4c(cccc4OCC(=O)O)C3)c(=O)cc2-c2ccccc2)c(F)c1 (racemic)	
10	80	51	75	3	Unstable	Unstable	COc1ccc(-c2nn(CC3CCc4c(cccc4OCC(=O)O)C3)c(=O)cc2-c2ccccc2)cc1F (racemic)	
9.5	81	28	107	11			COc1cccc(-c2cc(=O)n(CC3CCc4c(cccc4OCC(=O)O)C3)nc2-c2ccc(C)cc2)c1 (racemic)	
62	91	620	102	24			COc1cccc(-c2cc(=O)n(CC3CCc4c(cccc4OCC(=O)O)C3)nc2-c2ccc(F)cc2)c1 (racemic)	

EC50 (Prostacyclin receptor [1]) [nM]	Intrinsic activity (Prostacyclin receptor [2]) [%]	EC50 (Prostacyclin receptor [3]) [nM]	Intrinsic activity [4] [%]	EC50 [5] [nM]	Stability (Liver microsome [6])	Stability (Liver microsome [7])	SMILES	further results
100	75	260	88	180			O=C(O)COc1cccc2c1CCC(Cn1ncc(-c3ccccc3)c(-c3ccccc3)c1=O)C2 (racemic)	
140	101	690	81	48	Unstable	Unstable	COc1cccc(-c2cnn(CC3CCc4c(cccc4OCC(=O)O)C3)c(=O)c2-c2ccccc2)c1 (racemic)	
60	82	410	103	88			O=C(O)COc1cccc2c1CCC(Cn1ncc(-c3cccc(F)c3)c(-c3ccccc3)c1=O)C2 (racemic)	
86	93	260	98				O=C(O)COc1cccc2c1CCC(Cn1ncc(-c3cccc(Cl)c3)c(-c3ccccc3)c1=O)C2 (racemic)	
1060	73	> 3000			Unstable	Unstable	COc1ccc(-c2cnn(CC3CCc4c(cccc4OCC(=O)O)C3)c(=O)c2-c2ccccc2)cc1 (racemic)	
120	106	420	99	31			O=C(O)COc1cccc2c1CCC(Cn1ncc(-c3ccccc3F)c(-c3ccccc3)c1=O)C2 (racemic)	
38	87	110	101	36	Stable	Stable	O=C(O)COc1cccc2c1CCC(Cn1ncc(-c3cccc(F)c3F)c(-c3ccccc3)c1=O)C2 (racemic)	half-life [8]: 2.5 h; Activity (Rattus norvegicus [9]): Dose-dependent effect; fold change (FC) (Rattus norvegicus [10]; route subcutaneous): 13; fold change (FC) (Rattus norvegicus [11]; route subcutaneous): 9; fold change (FC) (Rattus norvegicus [12]): 9; Activity (Rattus norvegicus [13]): Active; Ratio EC50 (Homo sapiens): 10; EC50 [14]: 400 nM
10	78	40	98	40	Unstable	Unstable	COc1cccc(-c2cnn(CC3CCc4c(cccc4OCC(=O)O)C3)c(=O)c2-c2ccccc2)c1F (racemic)	
140	91	370	116				O=C(O)COc1cccc2c1CCC(Cn1ncc(-c3ccccc3)c(-c3ccccc3F)c1=O)C2 (racemic)	
260	100	790	121				O=C(O)COc1cccc2c1CCC(Cn1ncc(-c3ccccc3)c(-c3cccc(F)c3)c1=O)C2 (racemic)	
20	80	170	104				O=C(O)COc1cccc2c1CCC(Cn1ncc(-c3ccccc3)c(-c3ccc(F)cc3)c1=O)C2 (racemic)	
4	72	11	105		Unstable	Unstable	COc1ccc(-c2c(-c3ccccc3)cnn(CC3CCc4c(cccc4OCC(=O)O)C3)c2=O)cc1 (racemic)	
85	84	174	100		Unstable	Unstable	COc1ccc(-c2c(-c3ccccc3)cnn(CC3CCc4c(cccc4OCC(=O)O)C3)c2=O)cc1F (racemic)	
33	94	266	103	42			O=C(O)COc1cccc2c1CCC(Cn1ncc(-c3cccc(F)c3F)c(-c3ccc(F)cc3)c1=O)C2 (racemic)	
6	98	200	100	48			O=C(O)COc1cccc2c1CC[C@@H](Cn1ncc(-c3cccc(F)c3F)c(-c3ccc(F)cc3)c1=O)C2 (racemic)	Activity (Rattus norvegicus [10]; Heart right ventricle): inactive; Activity (Rattus norvegicus [11]; Heart right ventricle): inactive; bioavailability [15]: 76%; half-life [16]: 2 h; EC50 [14]: 140 nM
